Entries after “also recorded” stand apart in the source; their conditions may differ. Read-outs that look alike come from different tables or passages of the source.
Tests used:
DV serotype 2 = test: DV yield reduction assay in BHK cells; type: cell-based, Dengue virus (DV) serotype 2; conditions: for selectivity ratio at 72 h: hamster, read-out: SI (Selective Index, CC50/IC50)
Procedure: In the DV infection assay, a serotype 2 DV was used to infect BHK cells in the presence or absence of testing compounds and viruses produced after 72 hours were titered in a manner similar to the WNV assay. In this experiment, N-butylcyclohexyl-DNJ (SP169), N-pentyl(1-hydroxylcyclohexyl)-DNJ (OSL-95II), […] and N-propylcyclohexyl-DNJ (SP173) were compared with NNDNJ (Wu et al., 2002) and castanospermine. […] All compounds had no toxicity at the highest concentrations used in this experiment (FIG. 5B, Table 1).

WNV = WNV yield reduction assay in BHK cells; conditions: for selectivity ratio at 48 h: hamster
Procedure: Cells and viruses. BVDV-free MDBK cells (CCL 22) were obtained from the American Type Culture Collection and propagated in DMEM/F12 essential medium supplemented with penicillin (500 U/ml), streptomycin (500 U/ml), and 10% heat inactivated horse serum (Invitrogen). Cells were maintained in a humidified incubator at 37° C. with 5% CO2. BVDV (NADL strain) was obtained from Dr. Rubin Donis (Univ. of Nebraska-Lincoln). For infections, virus inoculum was added in complete medium and adsorbed for 1 h at 37° C., the inoculum was then removed, the cells washed once with medium and fresh medium containing compounds added. Virus stocks were prepared by freeze-thawing the infected cells and culture supernatant three times followed by centrifugation at 1,000 g for 5 min. Stock titers were determined, and stocks were aliquoted and stored at −80° C. WNV was obtained from a cDNA clone of a human 2002 isolate from Texas (Rossi et al., 2005); virus obtained from BHK cells electroporated with the in vitro synthesized RNA from this cDNA clone was passaged in Vero cells before use in antiviral assays. Dengue virus (DV) serotype 2 was a New Guinea C virus that had been passaged 28 times in suckling mouse brain, twice in Vero cells, and once in C6/36 mosquito cells.
WNV and DV Yield Reduction assay: Antiviral activity against WNV was evaluated in a yield reduction assay. Briefly, BHK cells were plated in 96-well plates at a concentration of 2.5×10^4 cells/well. 24 hours after plating, the cells were infected with WNV at an MOI of 0.05. After 1 hour the inoculum was aspirated and the cells re-fed with fresh DMEM containing dilutions of the test compounds. Plates were then incubated at 37° C. for 48 hours, the supernatant collected and the WNV produced titered. For virus titration, Vero cells were plated in 96-well plates at 8.0×10^3 cells/well and incubated overnight. The Vero cell monolayers were then infected for 1 hour with various dilutions of the WNV supernatant, overlaid with media containing 0.6% tragacanth (ICN, CA) and incubated at 37° C. for 24-30 hours. The culture media was then aspirated; the plate was rinsed, air-dried, and fixed with 50 ul/well acetone/methanol (50:50). Viral foci were detected for enumeration by immunostaining as described previously (Rossi et al., 2005). For antiviral testing against DV, DV serotype 2, drug incubations and titrations were performed essentially as described for WNV, except that the virus was harvested from drug-treated cultures 72 hrs after infection, and foci were stained using hybridoma culture fluid harvested from monoclonal antibody-producing hybridoma clone D1-4G2 (Gentry et al., 1982) following 3 days of incubation on Vero cells under the tragacanth overlay.
For this purpose, BHK cells were infected with WNV at an moi of 0.05, and incubated in either the absence or presence of various concentrations of N-butylcyclohexyl-DNJ (SP169) and N-propylcyclohexyl-DNJ (SP173). After three days, the amount of progeny virus produced was determined by plaque assays on indicator Vero cells.

[1] = MTT compound toxicity assay on BHK cells; type: cell-based; conditions: hamster; WNV (BHK); MTT, 50% reduction relative to DMSO
Procedure: (§1) Compound toxicity assay. Compound cytotoxicity was assessed by using an MTT based toxicity assay kit (Sigma, St. Louis, Mo.) as described elsewhere (Gu et al., 2006). Briefly, cells cultured under conditions identical to those used in the viral assay were incubated with various concentrations of the compound for 72 hours. MTT was added to the media to a final concentration of 0.5 mg/ml and was incubated for 3 hours at 37 C. After the culture media was removed, formazan crystals was dissolved by adding 150 ul of solubilization solution (10% Triton X-100, 0.1 N HCl in anhydrous isopropanol) for 15-30 minutes. The absorbance of the dissolved formazan was measured spectrophotometrically at 570 nm with absorbance at 690 nm as background.

HBV = HBV antigen assay: LHBs and MHBs secreted by HepG2.2.15 cells, immunoblot; type: cell-based, Hepatitis B virus; conditions: 7 days
Procedure: MHBs and LHBs are HBV envelope proteins that are sensitive to glucosidase inhibition and inhibition of these important viral glycoproteins serves as a surrogate for HBV growth. […] To assess the activity of this compound in the context of viral replication, HepG2 2.2.15 cells were incubated with the indicated DNJ derived compound. HepG 2.2.15 cells secrete readily detectable amounts of MHBs and LHBs into the culture medium. After 7 days of incubation, the amount of HBV M and L in the culture medium was determined by western blot. […] The nature of the selective antiviral activity is not known, but may be due to cell specific activity since HBV is studied in human liver derived hepatoblastoma HepG2 cells and BVDV and WNV were studied in MDBK and BHK cells, respectively.
HBV antigen assay: Antiviral activity against HBV was determined using HepG2.2.15 cells, which contain a dimer of the HBV genome and express all viral gene products, including envelope glycoproteins (Sells, Chen, and Acs, 1987). Briefly, HepG2.2.15 cells were seeded in 24 well trays, and allowed to grow to confluence prior to addition of drug, as described previously (Simsek et al., 2005). After seven days of treatment, supernatants were harvested and assayed for the presence of the Large Hepatitis B (LHBs) and middle Hepatitis B (MHBs) glycoproteins by electrophoresis through 12% polyacrylamide gels and immunoblotting with a polyclonal antibody that recognizes the pre-S2 region of the LHBs and MHBs proteins (Research Diagnostics Inc., Flanders, N.J.) as described (Simsek et al., 2005). Quantitation was performed using AlphaEase software (Alphalnnotech).

BVDV = BVDV single cycle virus yield reduction assay in MDBK cells; type: cell-based, Bovine Viral Diarrhea virus (NADL strain); conditions: for antiviral activity against BVDV (in words): MDBK cells, virus yield reduction, FIG. 2C / 4C
Procedure: BVDV antiviral and plaque assays. To evaluate antiviral activity against BVDV, a single cycle virus yield reduction assay was performed in the presence of various concentrations of the test compounds. Specifically, 2×10^5 MDBK cells/well were plated in 24 well plates. Twenty-four hours later, the cells were infected with BVDV at a multiplicity of infection (moi) of 0.5 PFU/cell in 100 ul complete media. After adsorption for 1 h at 37° C., the inoculum was removed, and cells were washed with media before media containing vehicle or various concentrations of each compound was added. At 22 hour post infection, both cell and media were collected and freeze-thawed three times before the virus was titered. For BVDV virus titer determination, 10^−2, 10^−3, and 10^−4 dilutions of virus were inoculated onto MDBK cells as described previously (Gu et al., 2000; Jordan et al., 2002). After absorption and washing the cells were overlaid with medium containing methylcellulose or soft agar and incubated at 37° C. for 3 days or until plaques were visible. Plaques were counted directly under the microscope or after staining with crystal violet in 70% methanol for 15 min.
(§2) The anti-viral activity of this family of compounds against BVDV was then determined by a single cycle viral yield reduction assay in Madin Darby Bovine Kidney (MDBK) cells where the compounds are incubated with cells for 20 hours during the period of infection. Yields of virus were then determined by plaque assay on new MDBK cell monolayers. Compound toxicity was measured by MTT assay and the CC50 determined as the concentration of compound producing 50% reduction in absorption readings. […] This is consistent with previous findings in which oxygenation and methoxylation of side chains emanating from the ring nitrogen were less toxic in tissue culture and in animals than straight chain alkylated DNJs (Mehta et al., 2002b).

BHK cells = test: MTT compound toxicity assay on BHK cells; type: cell-based; conditions: for CC50: WNV (BHK), MTT, 50% reduction relative to DMSO
Procedure: as §1

MDBK cells = test: MTT compound toxicity assay on MDBK cells; type: cell-based, Bovine; conditions: 72 hours; for CC50: BVDV (MDBK), concentration reducing MTT values (570 nm) by 50% relative to DMSO; for toxicity in MDBK cells (in words): MTT, FIG. 4B
Procedure: as §1, §2

[2] = MTT compound toxicity assay on MDBK cells; type: cell-based, Bovine; conditions: bovine
Procedure: as §1, §2

[3] = Dengue virus, BHK, 72 h, read-out: IC50 against DV
[4] = WNV (BHK), plaque number reduced by 50% relative to DMSO, 48 hours
[5] = BVDV (MDBK), concentration reducing plaque number by 50% relative to DMSO, read-out: IC50
[6] = MDBK cells, MTT, text to FIG. 2B / 4B

Compound `O[C@H]1[C@H](O)[C@@H](O)CN2CC[C@H](O)[C@H]12` [CAST, Castanospermine, reference compound] has an IC50 (DV serotype 2; Dengue virus, BHK, 72 h) of 6 µM, an IC50 (DV serotype 2; [3]) of 6 µM and a selectivity ratio at 72 h (DV serotype 2; DV (BHK)) of over 17. For the same compound, the IC50 (WNV; West Nile virus, BHK, 48 h) was over 20 µM, the selectivity ratio at 48 h (WNV) was 5 and the “antiviral activity against WNV (in words)” value (WNV; highest concentration tested (20 uM)) was “no significant activity”. It also gave a CC50 at 72 h [1] of over 100 µM.
In the case of `Nc1ccn([C@@H]2CS[C@H](CO)O2)c(=O)n1` [Compound 3TC, reference compound], the “reduction of MHBs and LHBs in culture medium (in words)” value (HBV; 3TC 1 ug/ml, FIG. 6B) is reported as “little effect”.
With `CCOCCCCCN1C[C@H](O)[C@@H](O)[C@H](O)[C@H]1CO` [Compound 6-08, 6′-oxaoctyl-DNJ] the “antiviral activity against BVDV (in words)” value (BVDV) was “retained the best antiviral activity of the series”.
In the case of `CCCCCCCCCN1C[C@H](O)[C@@H](O)[C@H](O)[C@H]1CO` [NNDNJ, N-nonyl-DNJ, reference compound], the “SI (Selective Index, CC50/IC50)” value (DV serotype 2; DV (BHK)) is reported as 20-100, the IC50 (DV serotype 2; text to FIG. 5A, BHK cells, DV serotype 2, 72 hours, read-out: IC50 against DV) is reported as 1 µM and the “SI (Selective Index, CC50/IC50)” value (WNV; WNV (BHK)) is reported as 5-25. The IC50 (WNV; [4]) was 4 µM, the “SI (Selective Index, CC50/IC50)” value (BVDV; BVDV (MDBK)) was over 50 and the IC50 (BVDV; [5]) was under 3 µM. For the same compound, the CC50 (BHK cells) was 20 to 100 µM and the CC50 (MDBK cells) was 150 µM.
For `OC[C@@H]1[C@@H](O)[C@H](O)[C@@H](O)CN1CCCCCC1CCCCC1` [OSL-1, N-pentylcyclohexyl-DNJ], the “inhibition of secretion of viral glycoproteins MHBs and LHBs (in words)” value (HBV; 50 uM, FIG. 6A) was “lacked antiviral activity in this assay”.
In the case of `OC[C@@H]1[C@@H](O)[C@H](O)[C@@H](O)CN1CCCCCCC1CCCCC1` [OSL-2, N-hexylcyclohexyl-DNJ], the “antiviral activity against BVDV (in words)” value (BVDV) is reported as “appeared to be inactive against BVDV”.
`OC[C@@H]1[C@@H](O)[C@H](O)[C@@H](O)CN1CCCCCCC1(O)CCCCC1` [OSL-3, N-hexyl(1-hydroxycyclohexyl)-1,5-dideoxy-1,5-imino-D-glucitol] showed a CC50 at 72 h [2, 6] of over 300 µM.
For `OC[C@@H]1[C@@H](O)[C@H](O)[C@@H](O)CN1CCCCC1(O)CCCCC1` [OSL-12-31, N-butyl(1-hydroxycyclohexyl)-1,5-dideoxy-1,5-imino-D-glucitol], the “toxicity in MDBK cells (in words)” value (MDBK cells) was “less toxic in MDBK cultures than SP169” and the CC50 at 72 h [2, 6] was over 300 µM.
For `OC[C@@H]1[C@@H](O)[C@H](O)[C@@H](O)CN1CCCCC1=CCCCC1` [OSL-12-51, N-butyl(1-cyclohexenyl)-DNJ], the “antiviral activity against BVDV (in words)” value (BVDV) was “substantially less active against BVDV”.
In the case of `OC[C@@H]1[C@@H](O)[C@H](O)[C@@H](O)CN1CCCCCC1(O)CCCCC1` [OSL-95II, N-pentyl(1-hydroxycyclohexyl)-1,5-dideoxy-1,5-imino-D-glucitol], the IC50 (DV serotype 2; Dengue virus, BHK, 72 h) is reported as 2 µM, the IC50 (DV serotype 2; [3]) is reported as 1 to 2 µM and the selectivity ratio at 72 h (DV serotype 2; DV (BHK)) is reported as over 50. For the same compound, the IC50 (WNV; West Nile virus, BHK, 48 h) was 4.5 µM, the selectivity ratio at 48 h (WNV) was over 9 and the IC50 (BVDV; Bovine viral diarrhea virus isolates and strains, MDBK) was 3 µM. For the same compound, the selectivity ratio at 20 h (BVDV; bovine, BVDV (MDBK), read-out: SI (Selective Index, CC50/IC50)) was over 166, the CC50 at 72 h [1] was over 100 µM and the “toxicity in MDBK cells (in words)” value (MDBK cells) was “much less toxic than N-pentylcyclohexyl-DNJ (OSL-1); also recorded: significantly less cytotoxic against MDBK cells”. For the same compound, the CC50 at 72 h ([2]; BVDV (MDBK), concentration reducing MTT values (570 nm) by 50% relative to DMSO) was over 500 µM.
In the case of `OC[C@@H]1[C@@H](O)[C@H](O)[C@@H](O)CN1CCCC1CCCCC1` [SP173, N-propylcyclohexyl-DNJ], the “SI (Selective Index, CC50/IC50)” value (DV serotype 2; DV (BHK)) is reported as over 33, the IC50 (DV serotype 2; DV (BHK), serotype 2, 72 hrs, read-out: IC50) is reported as 3 µM and the “antiviral activity against WNV (in words)” value (WNV; BHK cells, moi 0.05, FIG. 3B / 4D) is reported as “comparable to NNDNJ in activity”. The “SI (Selective Index, CC50/IC50)” value (WNV; WNV (BHK)) was over 100, the IC50 (WNV; [4]) was 1 µM and the IC50 (WNV; read-out: concentration inhibiting 50% of the WNV progeny produced, text to FIG. 3B, BHK cells, moi 0.05) was 5 µM. For the same compound, the “SI (Selective Index, CC50/IC50)” value (BVDV; BVDV (MDBK)) was over 30, the IC50 (BVDV; [5]) was 5 µM and the “concentration without any detectable cell toxicity (highest concentration tested)” value (BHK cells; BHK cells, measured in parallel to WNV assay, data not shown) was 100 µM. The CC50 (BHK cells) was over 100 µM and the CC50 (MDBK cells) was over 150 µM.

— patent publication US8097728B2, “Iminosugar compounds with antiflavirus activity” (Philadelphia Health & Education Corporation, priority 2007, dated 2012)
